Here are results for twelve molecules from ChEMBL document CHEMBL1201862, “PubChem BioAssay data set” (2004).

Where “and” joins values, the source holds several entries; their conditions need not be identical. Equal entries are not always repeated.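 48-hour exposure; five concentrations; linearly interpolated endpoints. At the GI50, growth is halved.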 Calls of active or inactive are those of the source. Rule as the data show it: active = GI50 up to about 1.1 µM and inactive = higher.

Some test systems named below: ACHN; CCRF-CEM; HCT-15; HL-60; HOP-62; HT-29; Malme-3M; NCI-H522; OVCAR-3; OVCAR-4; RPMI-8226; SK-MEL-2; SK-MEL-5; SN12C; SNB-19; SR; TK-10; RXF 393.
Holding throughout (test): inhibition of tumour cell growth, NCI panel, 48 h

As to `Cc1cc(N(CCC#N)CCC#N)ccc1/C=C1\N=C(c2cc([N+](=O)[O-])ccc2Cl)N(c2cccc(Cl)c2)C1=O`, the GI50 with ACHN is > 100 µM (inactive); in the test on CCRF-CEM it was 71.6 µM (inactive); in the test with HCT-15, above 100 µM; with HL-60, > 100 µM (inactive); in the test on HOP-62, > 100 µM (inactive); with HT-29, 45.2 µM (inactive). Further, the GI50 was > 100 µM (inactive) with Malme-3M; 58.6 µM (inactive) in the test on NCI-H522; > 100 µM (inactive) in the test with OVCAR-3; > 100 µM (inactive) in the test on OVCAR-4; > 100 µM (inactive) in the test on RPMI-8226; > 100 µM (inactive) with SK-MEL-2. Also, the GI50 in the test with SK-MEL-5 is > 100 µM (inactive); in the test on SN12C, > 100 µM (inactive); in the test with SNB-19 it was < 0.01 µM (active); with SR it was 94.4 µM (inactive); in the test on TK-10, > 100 µM (inactive).
On to `O=c1cc(-c2ccccc2)oc2cc(OCCSCCCCCCCCCCSCCOc3ccc4c(=O)cc(-c5ccccc5)oc4c3)ccc12`, for which the GI50 in the test on ACHN is > 100 µM (inactive); in the test on CCRF-CEM, > 100 µM (inactive); in the test with HCT-15, above 100 µM; in the test on HL-60, > 100 µM (inactive); in the test on HOP-62 it was 51.9 µM (inactive); in the test on HT-29 it was > 100 µM (inactive). Also, the GI50 in the test on Malme-3M was > 100 µM (inactive); in the test with NCI-H522 it was 94.2 µM (inactive); with OVCAR-3, > 100 µM (inactive); with RPMI-8226, > 100 µM (inactive); with RXF 393, 37.2 µM (inactive); in the test on SK-MEL-2, > 100 µM (inactive). Moreover, the GI50 was > 100 µM (inactive) in the test on SK-MEL-5; > 100 µM (inactive) in the test on SN12C; 51.2 µM (inactive) in the test with SNB-19; > 100 µM (inactive) in the test with SR; > 100 µM (inactive) in the test on TK-10.
Regarding `O=C1[C@@H]2C(c3ccccc3F)=NO[C@@H]2C(=O)N1c1ccc(Cc2ccc(N3C(=O)[C@H]4C(c5ccccc5F)=NO[C@H]4C3=O)cc2)cc1`, the GI50 with ACHN was > 100 µM (inactive); with CCRF-CEM, 16 µM (inactive); with HCT-15, above 100 µM; in the test on HL-60, 14.4 µM (inactive); with HOP-62, > 100 µM (inactive); in the test with HT-29 it was > 100 µM (inactive). For the same molecule, the GI50 in the test on Malme-3M was > 100 µM (inactive); with NCI-H522, > 100 µM (inactive); with OVCAR-3 it was > 100 µM (inactive); with OVCAR-4, > 100 µM (inactive); in the test on RPMI-8226 it was 29.4 µM (inactive); with RXF 393, > 43.7 µM (inactive). The GI50 in the test with SK-MEL-2 was > 100 µM (inactive); in the test with SK-MEL-5, > 100 µM (inactive); in the test with SN12C, > 100 µM (inactive); with SNB-19 it was > 100 µM (inactive); with SR it was 34.1 µM (inactive); with TK-10 it was > 31.6 µM (inactive).
As for `Nc1ncnc2c1ncn2C1CC(OCc2ccccc2[N+](=O)[O-])C(CO)O1` (centres undefined), the GI50 with ACHN was 13.3 µM (inactive); in the test on CCRF-CEM, 16.7 µM (inactive); in the test with HCT-15, 21.8 µM; in the test on HL-60, 12.7 µM (inactive); with HOP-62, 24.3 µM (inactive); in the test on HT-29, 17.5 µM (inactive). Besides, the GI50 is 20 µM (inactive) in the test on Malme-3M; 13.7 µM (inactive) in the test on NCI-H522; 30.1 µM (inactive) in the test with OVCAR-3; 17.4 µM (inactive) in the test with OVCAR-4; 14.9 µM (inactive) in the test with RPMI-8226; 5.38 µM (inactive) with RXF 393. Also, the GI50 is 22.4 µM (inactive) with SK-MEL-2; 24.3 µM (inactive) in the test on SN12C; 46.1 µM (inactive) in the test with SNB-19; 10.8 µM (inactive) with SR; 30.8 µM (inactive) with TK-10.
For `COc1ccc(/C=c2/sc3n(c2=O)NC(c2ccc(Cl)cc2)NN=3)cc1` (centres undefined), the GI50 in the test on CCRF-CEM, in the test with HT-29, in the test with Malme-3M, with NCI-H522, with OVCAR-3 and in the test on OVCAR-4 was > 100 µM (inactive) in each case. Besides, the GI50 in the test with RXF 393, in the test with SK-MEL-2, with SK-MEL-5, with SN12C, with SNB-19 and with SR was > 100 µM (inactive) throughout. Further, the GI50 in the test on TK-10 was > 100 µM (inactive).
Consider `O=C(O)Cn1c(=O)[nH]c(=O)c2c1ncn2Cc1ccccc1`, for which the GI50 was > 100 µM (inactive) in the test with ACHN; > 100 µM (inactive) with CCRF-CEM; above 100 µM with HCT-15; > 100 µM (inactive) with HOP-62; > 100 µM (inactive) in the test on HT-29; > 100 µM (inactive) in the test with Malme-3M. Besides, the GI50 in the test on NCI-H522, in the test with OVCAR-3, in the test with RPMI-8226, in the test on SK-MEL-2, with SK-MEL-5 and in the test with SN12C was > 100 µM (inactive) throughout. Further, the GI50 in the test on SNB-19, with SR and with TK-10 was > 100 µM (inactive) each time.
As to `Nc1nnc2c(-c3ccccc3)n[nH]c2n1`, the GI50 with ACHN is 30 µM (inactive); in the test on CCRF-CEM it was 18.5 µM (inactive); in the test on HCT-15 it was 52.1 µM; in the test on HL-60, 9.4 µM (inactive); in the test on HT-29, 24.4 µM (inactive); in the test with NCI-H522, > 100 µM (inactive). Besides, the GI50 in the test with OVCAR-3 is > 100 µM (inactive); with OVCAR-4 it was > 100 µM (inactive); with RPMI-8226, 55.3 µM (inactive); in the test on RXF 393, 34.1 µM (inactive); with SK-MEL-2, 90.2 µM (inactive); with SN12C, 63 µM (inactive). For the same molecule, the GI50 was 57.1 µM (inactive) in the test on SNB-19, 27.4 µM (inactive) with SR and 23 µM (inactive) with TK-10.
On to `CSc1nnc2n1-c1ccccc1SCC2`, for which the GI50 in the test on ACHN is > 100 µM (inactive); in the test with CCRF-CEM, > 100 µM (inactive); in the test on HCT-15, above 100 µM; with HL-60, > 100 µM (inactive); in the test on HOP-62, > 100 µM (inactive); with HT-29 it was > 100 µM (inactive). The GI50 in the test on Malme-3M, in the test with NCI-H522, with OVCAR-3, with OVCAR-4, in the test on RPMI-8226 and in the test with RXF 393 was > 100 µM (inactive) each time. Besides, the GI50 in the test with SK-MEL-2, in the test on SN12C, with SNB-19, with SR and in the test with TK-10 was > 100 µM (inactive) in each case.
Turning to `COc1nc(/C=N/NC(N)=S)nc(OC)n1`, the GI50 is 43.8 µM (inactive) with ACHN; 45.8 µM (inactive) in the test with HL-60; 76 µM (inactive) in the test with HT-29; 72.1 µM (inactive) in the test with Malme-3M; 75.5 µM (inactive) in the test on NCI-H522; > 100 µM (inactive) in the test on OVCAR-3. Besides, the GI50 in the test with OVCAR-4 was > 100 µM (inactive); in the test on RPMI-8226, > 100 µM (inactive); in the test with RXF 393, > 100 µM (inactive); in the test on SK-MEL-2, > 100 µM (inactive); in the test with SN12C, 71.6 µM (inactive); with SNB-19, > 100 µM (inactive). In addition, the GI50 is 68.7 µM (inactive) in the test with SR and > 100 µM (inactive) in the test with TK-10.
For the molecule `CC1(C)OC2C(O1)[C@H]1OC(C(Cl)(Cl)Cl)=N[C@H]1C(I)[C@H]2N1C(=O)c2ccccc2C1=O` (some centres undefined), the GI50 in the test on ACHN is 65.6 µM (inactive); in the test with CCRF-CEM, 41.4 µM (inactive); in the test on HCT-15 it was 55.1 µM; in the test on HL-60, 17.9 µM (inactive); with HOP-62, > 100 µM (inactive); in the test with HT-29 it was 59.4 µM (inactive). The GI50 was 24.5 µM (inactive) in the test on NCI-H522; 24.1 µM (inactive) in the test with OVCAR-4; 32.7 µM (inactive) in the test with RPMI-8226; 28.9 µM (inactive) in the test on RXF 393; 48.9 µM (inactive) in the test with SK-MEL-5; 74.8 µM (inactive) with SN12C. Moreover, the GI50 in the test with SNB-19 is > 100 µM (inactive); in the test on SR, 23.1 µM (inactive).
On to `NCCCC1NC(=O)/C(=C(O)/C=C/C2CCC[C@@H]2CC2SCCS2)C1=O` (some centres undefined), for which the GI50 is > 100 µM (inactive) in the test on ACHN; 54.1 µM (inactive) in the test on CCRF-CEM; 23.3 µM (inactive) in the test with HL-60; > 100 µM (inactive) with HOP-62; > 100 µM (inactive) with HT-29; > 100 µM (inactive) in the test on Malme-3M. Also, the GI50 in the test on NCI-H522 was 29 µM (inactive); in the test on OVCAR-3 it was > 100 µM (inactive); with OVCAR-4 it was > 100 µM (inactive); in the test with RPMI-8226, > 100 µM (inactive); in the test with RXF 393, > 100 µM (inactive); with SK-MEL-2, > 100 µM (inactive). Further, the GI50 in the test on SK-MEL-5 is > 100 µM (inactive); in the test on SN12C, > 100 µM (inactive); in the test with SNB-19 it was > 100 µM (inactive); in the test on SR, 58.5 µM (inactive); with TK-10, > 100 µM (inactive).
Regarding `COC(=O)CC(C(C(C)=O)C(=O)OCc1ccccc1)N1C(=O)OC(c2ccccc2)C1c1ccccc1` (centres undefined), the GI50 is > 100 µM (inactive) in the test with ACHN; 72.4 µM (inactive) and 73.8 µM (inactive) with CCRF-CEM; 52.2 µM and 62.5 µM with HCT-15; 37.7 µM (inactive) and 32.2 µM (inactive) in the test on HL-60; 54.1 µM (inactive) with HOP-62; > 100 µM (inactive) with HT-29. Besides, the GI50 in the test with Malme-3M is > 100 µM (inactive); with NCI-H522 it was 38.3 µM (inactive) and 22.9 µM (inactive); in the test with OVCAR-3, 29.6 µM (inactive) and 17.4 µM (inactive); with RPMI-8226, 28.8 µM (inactive) and 33.5 µM (inactive); in the test on SK-MEL-2, 61.5 µM (inactive) and 83.4 µM (inactive); with SK-MEL-5 it was 60.1 µM (inactive). Moreover, the GI50 in the test with SN12C was > 100 µM (inactive); with SR, 42.7 µM (inactive) and 42.5 µM (inactive); in the test on TK-10 it was > 100 µM (inactive).
